Measurements published in patent US20120121591A1 (priority 2009, published 2012).
Read-outs that look alike come from different tables or passages of the source.

Key:
Type in all cases: cell-based
[1] = test system: IL-2 secretion from T cells in human whole blood
hKv1.3 = hKv1.3 (Homo sapiens, UniProt P22001); experiment: cell-based; conditions: Kv1.3 (IWQ) IC50 (nM, Avg)
[2] = test system: IFN-g secretion from T cells in human whole blood; conditions: read-out: WB (IFNg) IC50 (nM, Avg)
[3] = read-out: WB (IL-2) IC50 (nM, Avg)

Chain of hKv1.3 (P22001 whole entry): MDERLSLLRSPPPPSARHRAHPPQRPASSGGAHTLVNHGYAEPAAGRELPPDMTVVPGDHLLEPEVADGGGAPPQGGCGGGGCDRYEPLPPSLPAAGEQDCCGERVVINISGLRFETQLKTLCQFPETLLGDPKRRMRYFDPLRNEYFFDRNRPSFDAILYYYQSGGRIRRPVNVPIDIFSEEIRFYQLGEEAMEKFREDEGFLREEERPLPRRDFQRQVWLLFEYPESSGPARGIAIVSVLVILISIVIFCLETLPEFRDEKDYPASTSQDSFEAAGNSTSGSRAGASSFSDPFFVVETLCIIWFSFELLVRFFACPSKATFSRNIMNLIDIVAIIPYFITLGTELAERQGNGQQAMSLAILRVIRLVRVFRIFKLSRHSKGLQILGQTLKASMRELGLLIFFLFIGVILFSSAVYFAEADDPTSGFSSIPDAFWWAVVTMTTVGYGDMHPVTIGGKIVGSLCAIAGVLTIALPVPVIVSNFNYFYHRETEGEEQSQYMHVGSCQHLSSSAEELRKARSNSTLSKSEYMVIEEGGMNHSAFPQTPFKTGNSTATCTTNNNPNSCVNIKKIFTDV

Row | SMILES | IC50 ([1]; read-out: WB (IL-2) IC50) [nM] | IC50 [1, 3] [nM] | IC50 (hKv1.3) [nM] | IC50 [2] [nM]
1 | CCCC[C@@H]1NC(=O)[C@H](CO)NC(=O)[C@H](Cc2c[nH]cn2)NC(=O)[C@H](CCCCN)NC(=O)[C@@H]2CSSC[C@@H]3NC(=O)[C@H]([C@@H](C)O)NC(=O)[C@H](CCCCN)NC(=O)[C@H](CCCNC(=N)N)NC(=O)[C@H](CSSC[C@H](NC(=O)[C@H](CCCNC(=N)N)NC(=O)[C@H](CO)NC(=O)[C@H](CCCCN)NC(=O)[C@@H]4CCCN4C(=O)[C@H]([C@@H](C)CC)NC(=O)[C@H]([C@@H](C)O)NC(=O)[C@H](CC(=O)O)NC(=O)[C@H]([C@@H](C)CC)NC(=O)[C@@H](NC(=O)[C@H](CO)NC(=O)[C@@H](N)CCCNC(=N)N)CSSC[C@@H](C(N)=O)NC(=O)[C@H]([C@@H](C)O)NC(=O)CNC3=O)C(=O)N[C@@H]([C@@H](C)O)C(=O)N[C@@H](C)C(=O)N[C@@H](Cc3ccccc3)C(=O)N[C@@H](CCCCN)C(=O)N2)NC(=O)[C@H](Cc2ccccc2)NC(=O)[C@H](CO)NC(=O)[C@H](CC(C)C)NC(=O)[C@H](CCCNC(=N)N)NC(=O)[C@H](Cc2ccc(O)cc2)NC(=O)[C@H](CCCCN)NC1=O [[Lys16, Nle21]ShK-amide] | 0.82 | 0.823 | 0.153 | 1.1
2 | CCC[C@@H]1NC(=O)[C@H](CO)NC(=O)[C@H](Cc2c[nH]cn2)NC(=O)[C@H](CCCCN)NC(=O)[C@@H]2CSSC[C@@H]3NC(=O)[C@H]([C@@H](C)O)NC(=O)[C@H](CCCCN)NC(=O)[C@H](CCCNC(=N)N)NC(=O)[C@H](CSSC[C@H](NC(=O)[C@H](CCCNC(=N)N)NC(=O)[C@H](CO)NC(=O)[C@H](CCCCN)NC(=O)[C@@H]4CCCN4C(=O)[C@H]([C@@H](C)CC)NC(=O)[C@H]([C@@H](C)O)NC(=O)[C@H](CC(=O)O)NC(=O)[C@H]([C@@H](C)CC)NC(=O)[C@@H](NC(=O)[C@H](CO)NC(=O)[C@@H](N)CCCNC(=N)N)CSSC[C@@H](C(=O)N[C@@H](CCC(=O)O)C(N)=O)NC(=O)[C@H]([C@@H](C)O)NC(=O)CNC3=O)C(=O)N[C@@H]([C@@H](C)O)C(=O)N[C@@H](C)C(=O)N[C@@H](Cc3ccccc3)C(=O)N[C@@H](CCCCN)C(=O)N2)NC(=O)[C@H](Cc2ccccc2)NC(=O)[C@H](CO)NC(=O)[C@H](CC(C)C)NC(=O)[C@H](CCCNC(=N)N)NC(=O)[C@H](Cc2ccc(O)cc2)NC(=O)[C@H](CCCCN)NC1=O [[Lys16, Nva21]ShK-Glu-amide] |  | 0.218 | 0.21 | 0.353
3 | CCC[C@@H]1NC(=O)[C@H](CO)NC(=O)[C@H](Cc2c[nH]cn2)NC(=O)[C@H](CCCCN)NC(=O)[C@@H]2CSSC[C@@H]3NC(=O)[C@H]([C@@H](C)O)NC(=O)[C@H](CCCCN)NC(=O)[C@H](CCCNC(=N)N)NC(=O)[C@H](CSSC[C@H](NC(=O)[C@H](CCCNC(=N)N)NC(=O)[C@H](CO)NC(=O)[C@H](CCCCN)NC(=O)[C@@H]4CCCN4C(=O)[C@H]([C@@H](C)CC)NC(=O)[C@H]([C@@H](C)O)NC(=O)[C@H](CC(=O)O)NC(=O)[C@H]([C@@H](C)CC)NC(=O)[C@@H](NC(=O)[C@H](CO)NC(=O)[C@@H](N)CCCNC(=N)N)CSSC[C@@H](C(N)=O)NC(=O)[C@H]([C@@H](C)O)NC(=O)CNC3=O)C(=O)N[C@@H]([C@@H](C)O)C(=O)N[C@@H](C)C(=O)N[C@@H](Cc3ccccc3)C(=O)N[C@@H](CCCCN)C(=O)N2)NC(=O)[C@H](Cc2ccccc2)NC(=O)[C@H](CO)NC(=O)[C@H](CC(C)C)NC(=O)[C@H](CCCNC(=N)N)NC(=O)[C@H](Cc2ccc(O)cc2)NC(=O)[C@H](CCCCN)NC1=O [[Lys16, Nva21]ShK-amide] |  | 0.486 | 0.47 | 0.932
4 | CC[C@H](C)[C@@H]1NC(=O)[C@@H](NC(=O)[C@H](CO)NC(=O)[C@@H](N)CCCNC(=N)N)CSSC[C@@H](C(N)=O)NC(=O)[C@H]([C@@H](C)O)NC(=O)CNC(=O)[C@@H]2CSSC[C@@H]3NC(=O)[C@H](CCCCN)NC(=O)[C@H](Cc4ccccc4)NC(=O)[C@H](C)NC(=O)[C@H]([C@@H](C)O)NC(=O)[C@H](CSSC[C@H](NC(=O)[C@H](Cc4ccccc4)NC(=O)[C@H](CO)NC(=O)[C@H](CC(C)C)NC(=O)[C@H](CCCNC(=N)N)NC(=O)[C@H](Cc4ccc(O)cc4)NC(=O)[C@H](CCCCN)NC(=O)[C@H](Cc4ccccc4)NC(=O)[C@H](CO)NC(=O)[C@H](Cc4c[nH]cn4)NC(=O)[C@H](CCCCN)NC3=O)C(=O)N[C@@H](CCCNC(=N)N)C(=O)N[C@@H](CCCCN)C(=O)N[C@@H]([C@@H](C)O)C(=O)N2)NC(=O)[C@H](CCCNC(=N)N)NC(=O)[C@H](CO)NC(=O)[C@H](CCCCN)NC(=O)[C@@H]2CCCN2C(=O)[C@H]([C@@H](C)CC)NC(=O)[C@H]([C@@H](C)O)NC(=O)[C@H](CC(=O)O)NC1=O [[Lys16, Phe21]ShK-amide] |  | 1.47 | 0.246 | 2.04
5 | CC[C@H](C)[C@@H]1NC(=O)[C@@H](NC(=O)[C@H](CO)NC(=O)[C@@H](N)CCCNC(=N)N)CSSC[C@@H](C(N)=O)NC(=O)[C@H]([C@@H](C)O)NC(=O)CNC(=O)[C@@H]2CSSC[C@@H]3NC(=O)[C@H](CCCCN)NC(=O)[C@H](Cc4ccccc4)NC(=O)[C@H](C)NC(=O)[C@H]([C@@H](C)O)NC(=O)[C@H](CSSC[C@H](NC(=O)[C@H](Cc4ccccc4)NC(=O)[C@H](CO)NC(=O)[C@H](CC(C)C)NC(=O)[C@H](CCCNC(=N)N)NC(=O)[C@H](Cc4ccc(O)cc4)NC(=O)[C@H](CCCCN)NC(=O)[C@H](CO)NC(=O)[C@H](CO)NC(=O)[C@H](Cc4c[nH]cn4)NC(=O)[C@H](CCCCN)NC3=O)C(=O)N[C@@H](CCCNC(=N)N)C(=O)N[C@@H](CCCCN)C(=O)N[C@@H]([C@@H](C)O)C(=O)N2)NC(=O)[C@H](CCCNC(=N)N)NC(=O)[C@H](CO)NC(=O)[C@H](CCCCN)NC(=O)[C@@H]2CCCN2C(=O)[C@H]([C@@H](C)CC)NC(=O)[C@H]([C@@H](C)O)NC(=O)[C@H](CC(=O)O)NC1=O [[Lys16, Ser21]ShK-amide] |  | 1.45 | 0.068 | 1.71
6 | CC[C@H](C)[C@@H]1NC(=O)[C@@H](NC(=O)[C@H](CO)NC(=O)[C@@H](N)CCCNC(=N)N)CSSC[C@@H](C(N)=O)NC(=O)[C@H]([C@@H](C)O)NC(=O)CNC(=O)[C@@H]2CSSC[C@@H]3NC(=O)[C@H](CCCCN)NC(=O)[C@H](Cc4ccccc4)NC(=O)[C@H](C)NC(=O)[C@H]([C@@H](C)O)NC(=O)[C@H](CSSC[C@H](NC(=O)[C@H](Cc4ccccc4)NC(=O)[C@H](CO)NC(=O)[C@H](CC(C)C)NC(=O)[C@H](CCCNC(=N)N)NC(=O)[C@H](Cc4ccc(O)cc4)NC(=O)[C@H](CCCCN)NC(=O)[C@H]([C@@H](C)O)NC(=O)[C@H](CO)NC(=O)[C@H](Cc4c[nH]cn4)NC(=O)[C@H](CCCCN)NC3=O)C(=O)N[C@@H](CCCNC(=N)N)C(=O)N[C@@H](CCCCN)C(=O)N[C@@H]([C@@H](C)O)C(=O)N2)NC(=O)[C@H](CCCNC(=N)N)NC(=O)[C@H](CO)NC(=O)[C@H](CCCCN)NC(=O)[C@@H]2CCCN2C(=O)[C@H]([C@@H](C)CC)NC(=O)[C@H]([C@@H](C)O)NC(=O)[C@H](CC(=O)O)NC1=O [[Lys16, Thr21]ShK-amide] |  | 1.55 | 0.058 | 2.98
7 | CC[C@H](C)[C@@H]1NC(=O)[C@@H](NC(=O)[C@H](CO)NC(=O)[C@@H](N)CCCNC(=N)N)CSSC[C@@H](C(N)=O)NC(=O)[C@H]([C@@H](C)O)NC(=O)CNC(=O)[C@@H]2CSSC[C@@H]3NC(=O)[C@H](CCCCN)NC(=O)[C@H](Cc4ccccc4)NC(=O)[C@H](C)NC(=O)[C@H]([C@@H](C)O)NC(=O)[C@H](CSSC[C@H](NC(=O)[C@H](Cc4ccccc4)NC(=O)[C@H](CO)NC(=O)[C@H](CC(C)C)NC(=O)[C@H](CCCNC(=N)N)NC(=O)[C@H](Cc4ccc(O)cc4)NC(=O)[C@H](CCCCN)NC(=O)[C@H](Cc4c[nH]c5ccccc45)NC(=O)[C@H](CO)NC(=O)[C@H](Cc4c[nH]cn4)NC(=O)[C@H](CCCCN)NC3=O)C(=O)N[C@@H](CCCNC(=N)N)C(=O)N[C@@H](CCCCN)C(=O)N[C@@H]([C@@H](C)O)C(=O)N2)NC(=O)[C@H](CCCNC(=N)N)NC(=O)[C@H](CO)NC(=O)[C@H](CCCCN)NC(=O)[C@@H]2CCCN2C(=O)[C@H]([C@@H](C)CC)NC(=O)[C@H]([C@@H](C)O)NC(=O)[C@H](CC(=O)O)NC1=O [[Lys16, Trp21]ShK-amide] |  | 3.86 | 0.782 | 3.19
8 | CC[C@H](C)[C@@H]1NC(=O)[C@@H](NC(=O)[C@H](CO)NC(=O)[C@@H](N)CCCNC(=N)N)CSSC[C@@H](C(N)=O)NC(=O)[C@H]([C@@H](C)O)NC(=O)CNC(=O)[C@@H]2CSSC[C@@H]3NC(=O)[C@H](CCCCN)NC(=O)[C@H](Cc4ccccc4)NC(=O)[C@H](C)NC(=O)[C@H]([C@@H](C)O)NC(=O)[C@H](CSSC[C@H](NC(=O)[C@H](Cc4ccccc4)NC(=O)[C@H](CO)NC(=O)[C@H](CC(C)C)NC(=O)[C@H](CCCNC(=N)N)NC(=O)[C@H](Cc4ccc(O)cc4)NC(=O)[C@H](CCCCN)NC(=O)[C@H](Cc4ccc(O)cc4)NC(=O)[C@H](CO)NC(=O)[C@H](Cc4c[nH]cn4)NC(=O)[C@H](CCCCN)NC3=O)C(=O)N[C@@H](CCCNC(=N)N)C(=O)N[C@@H](CCCCN)C(=O)N[C@@H]([C@@H](C)O)C(=O)N2)NC(=O)[C@H](CCCNC(=N)N)NC(=O)[C@H](CO)NC(=O)[C@H](CCCCN)NC(=O)[C@@H]2CCCN2C(=O)[C@H]([C@@H](C)CC)NC(=O)[C@H]([C@@H](C)O)NC(=O)[C@H](CC(=O)O)NC1=O [[Lys16, Tyr21]ShK-amide] |  | 2.83 | 0.246 | 3.19
